Experiments:
memapsin 2 = memapsin 2 (Homo sapiens, UniProt P56817); experiment: Inhibition of memapsin 2 beta-secretase activity toward fluorogenic substrate FS-2; type: biochemical; conditions: pH 4, 37° C., 20 minutes pre-incubation, read-out: M2 Ki
Protocol: Potency of compounds were determined by measurement of their inhibition of memapsin 2 activity toward a fluorescent substrate. […] Briefly, assays were performed at pH 4, 37° C., by pre-incubation of memapsin 2 enzyme with compound for 20 minutes. Activity measure was initiated by addition of a fluorogenic substrate FS-2 (Bachem Americas, Torrance, Calif.). Fluorescent signal increase over time was measured as a rate of hydrolysis of the peptide substrate.

Aβ production = experiment: Cellular Aβ IC50 determination (Aβ40 sandwich ELISA); type: cell-based; conditions: Cricetulus griseus, Chinese hamster ovary cells over-expressing human APP695 with London and Swedish mutations, 24 h
Protocol: The potency of compounds against memapsin 2 activity was determined in a cellular assay of Aβ production. […] Chinese hamster ovary cells that over-express human APP695 with the London and Swedish mutations were seeded in multi-well plates at 10% confluency. Compounds were dissolved in DMSO to concentrations near 1 mM, and diluted into culture media to a final concentration near 4 μM (final 0.4% DMSO). Compounds were diluted serially and applied to cells in multi-well plates 48 h after seeding. Incubation was continued in 5% CO2 at 37 degrees C. for 24 h. Aliquots were removed and assayed for Aβ40 content using a sandwich ELISA (BioSource International). Amount of Aβ40 over the range of concentration of compounds, relative to control incubations, were fit to a 4-parameter IC50 model.

Chain of memapsin 2 (P56817 46-501): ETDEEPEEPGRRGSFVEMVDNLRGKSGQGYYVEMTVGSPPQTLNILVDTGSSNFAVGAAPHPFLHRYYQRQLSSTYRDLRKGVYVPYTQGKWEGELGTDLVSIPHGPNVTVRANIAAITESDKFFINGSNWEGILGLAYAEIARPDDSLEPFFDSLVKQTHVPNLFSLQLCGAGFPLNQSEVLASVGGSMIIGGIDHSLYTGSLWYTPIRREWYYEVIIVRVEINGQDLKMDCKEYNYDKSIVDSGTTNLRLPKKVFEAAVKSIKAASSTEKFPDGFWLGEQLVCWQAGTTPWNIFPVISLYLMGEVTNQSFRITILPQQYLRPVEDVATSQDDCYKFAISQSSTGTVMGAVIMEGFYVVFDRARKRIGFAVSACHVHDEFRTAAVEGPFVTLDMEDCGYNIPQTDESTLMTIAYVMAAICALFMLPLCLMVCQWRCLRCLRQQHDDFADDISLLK

Ki (memapsin 2)	IC50 (Aβ production)	SMILES
405 to 2000 nM		CC(C)CNC(=O)C(NC(=O)C(C)CC(O)C(CC(C)C)NC(=O)c1cc(OCC(O)CN=[N+]=[N-])cc(C(=O)NC(C)c2ccccc2)c1)C(C)C (stereo not drawn) [5-(3-azido-2-hydroxypropoxy)-N1-(5-hydroxy-8-(1-(isobutylamino)-3-methyl-1-oxobutan-2-ylamino)-2,7-dimethyl-8-oxooctan-4-yl)-N3-(1-phenylethyl)isophthalamide]
< 405 nM	> 20000 nM	Cc1cc(C(=O)NC(CC(C)C)C(O)CC(C)C(=O)NC(C(=O)NCC(C)C)C(C)C)cc(C(=O)N(C)Cc2ccccn2)c1 (stereo not drawn) [N1-(5-hydroxy-8-(1-(isobutylamino)-3-methyl-1-oxobutan-2-ylamino)-2,7-dimethyl-8-oxooctan-4-yl)-N3,5-dimethyl-N3-(pyridin-2-ylmethyl)isophthalamide]
< 405 nM	< 5000 nM	CC(C)CC(NC(=O)c1cc(C(=O)NC(C)c2ccccc2)cc(N(C)S(C)(=O)=O)c1)C(O)CC(C)C(=O)NC(C(=O)NCC1CN(C)C1)C(C)C (stereo not drawn) [N1-(5-hydroxy-2,7-dimethyl-8-(3-methyl-1-((1-methylazetidin-3-yl)methylamino)-1-oxobutan-2-ylamino)-8-oxooctan-4-yl)-5-(N-methylmethylsulfonamido)-N3-(1-phenylethyl)isophthalamide]
< 405 nM	5000 to 10000 nM	CC(=O)N(C)c1cc(C(=O)NC(C)c2ccccc2)cc(C(=O)NC(CC(C)C)C(O)CC(C)C(=O)NC(C(=O)NCC(C)C)C(C)C)c1 (stereo not drawn) [N1-(5-hydroxy-8-(1-(isobutylamino)-3-methyl-1-oxobutan-2-ylamino)-2,7-dimethyl-8-oxooctan-4-yl)-5-(N-methylacetamido)-N3-(1-phenylethyl)isophthalamide]
405 to 2000 nM	> 20000 nM	COc1cccc(CN(C)C(=O)c2cccc(C(=O)NC(CC(C)C)C(O)CC(C)C(=O)NC(C(=O)NCC(C)C)C(C)C)c2)c1 (stereo not drawn) [N1-(5-hydroxy-8-(1-(isobutylamino)-3-methyl-1-oxobutan-2-ylamino)-2,7-dimethyl-8-oxooctan-4-yl)-N3-(3-methoxybenzyl)-N3-methylisophthalamide]
< 405 nM		Cc1csc(CN(C(=O)c2cccc(C(=O)NC(CC(C)C)C(O)CC(C)C(=O)NC(C(=O)NCC(C)C)C(C)C)c2)C(C)C)n1 (stereo not drawn) [N1-(5-hydroxy-8-(1-(isobutylamino)-3-methyl-1-oxobutan-2-ylamino)-2,7-dimethyl-8-oxooctan-4-yl)-N3-isopropyl-N3-((4-methylthiazol-2-yl)methyl)isophthalamide]
< 405 nM	< 5000 nM	CCN(Cc1nc(C)cs1)C(=O)c1cccc(C(=O)NC(CC(C)C)C(O)CC(C)C(=O)NC(C(=O)NCC(C)C)C(C)C)c1 (stereo not drawn) [N1-ethyl-N3-(5-hydroxy-8-(1-(isobutylamino)-3-methyl-1-oxobutan-2-ylamino)-2,7-dimethyl-8-oxooctan-4-yl)-N1-((4-methylthiazol-2-yl)methyl)isophthalamide]
< 405 nM		CCc1csc(CNC(=O)c2cc(C(=O)NC(CC(C)C)C(O)CC(C)C(=O)NC(C(=O)NCC(C)C)C(C)C)cc(N(C)S(C)(=O)=O)c2)n1 (stereo not drawn) [N1-((4-ethylthiazol-2-yl)methyl)-N3-(5-hydroxy-8-(1-(isobutylamino)-3-methyl-1-oxobutan-2-ylamino)-2,7-dimethyl-8-oxooctan-4-yl)-5-(N-methylmethylsulfonamido)isophthalamide]
405 to 2000 nM		COc1cccc(CNC(=O)CNC(=O)C(C)CC(O)C(CC(C)C)NC(=O)c2cc(C(=O)NC(C)c3ccccc3)cc(N(C)S(C)(=O)=O)c2)c1 (stereo not drawn) [N1-(5-hydroxy-8-(2-(3-methoxybenzylamino)-2-oxoethylamino)-2,7-dimethyl-8-oxooctan-4-yl)-5-(N-methylmethylsulfonamido)-N3-(1-phenylethyl)isophthalamide]
< 405 nM	10000 to 20000 nM	Cc1cc(C(=O)NC(CC(C)C)C(O)CC(C)C(=O)NC(C(=O)NCC(C)C)C(C)C)cc(C(=O)N(C)Cc2cccnc2)c1 (stereo not drawn) [N1-(5-hydroxy-8-(1-(isobutylamino)-3-methyl-1-oxobutan-2-ylamino)-2,7-dimethyl-8-oxooctan-4-yl)-N3,5-dimethyl-N3-(pyridin-3-ylmethyl)isophthalamide]
> 5000 nM		CCN(Cc1ccncc1)C(=O)c1cncc(C(=O)NC(CC(C)C)C(O)CC(C)C(=O)NC(C(=O)NCC(C)C)C(C)C)c1 (stereo not drawn) [N3-ethyl-N5-(5-hydroxy-8-(1-(isobutylamino)-3-methyl-1-oxobutan-2-ylamino)-2,7-dimethyl-8-oxooctan-4-yl)-N3-(pyridin-4-ylmethyl)pyridine-3,5-dicarboxamide]
< 405 nM	< 5000 nM	CC(C)CC(NC(=O)c1cc(C(=O)NC(C)c2ccccc2)cc(N(C)S(C)(=O)=O)c1)C(O)CC(C)C(=O)NC(C(=O)NCC1CCN(C)CC1)C(C)C (stereo not drawn) [N1-(5-hydroxy-2,7-dimethyl-8-(3-methyl-1-((1-methylpiperidin-4-yl)methylamino)-1-oxobutan-2-ylamino)-8-oxooctan-4-yl)-5-(N-methylmethylsulfonamido)-N3-(1-phenylethyl)isophthalamide]
< 405 nM	> 20000 nM	Cc1nc(CN(C)C(=O)c2cccc(C(=O)NC(CC(C)C)C(O)CC(C)C(=O)NC(C(=O)NCC(C)C)C(C)C)c2)co1 (stereo not drawn) [N1-(5-hydroxy-8-(1-(isobutylamino)-3-methyl-1-oxobutan-2-ylamino)-2,7-dimethyl-8-oxooctan-4-yl)-N3-methyl-N3-((2-methyloxazol-4-yl)methyl)isophthalamide]
< 405 nM	< 5000 nM	CC(C)CC(NC(=O)c1cc(C(=O)NC(C)c2ccccc2)cc(N(C)S(C)(=O)=O)c1)C(O)CC(N=[N+]=[N-])C(=O)NC(C(=O)NC(C)C)C(C)C (stereo not drawn) [N1-(7-azido-5-hydroxy-8-(1-(isopropylamino)-3-methyl-1-oxobutan-2-ylamino)-2-methyl-8-oxooctan-4-yl)-5-(N-methylmethylsulfonamido)-N3-(1-phenylethyl)isophthalamide]
> 5000 nM		CCCN(CCC)C(=O)c1cc(NC(=O)OC(C)(C)C)cc(C(=O)NC(CC(C)C)C(O)CC(OC)C(=O)NC(C(=O)NC(C)C)C(C)C)c1 (stereo not drawn) [tert-butyl 3-(dipropylcarbamoyl)-5-(5-hydroxy-8-(1-(isopropylamino)-3-methyl-1-oxobutan-2-ylamino)-7-methoxy-2-methyl-8-oxooctan-4-ylcarbamoyl)phenylcarbamate]
405 to 2000 nM		CC(C)CC(NC(=O)c1cc(C(=O)NC(C)c2ccccc2)cc(N(C)S(C)(=O)=O)c1)C(O)CC(NC(=O)OCc1ccccc1)C(=O)NC(C(=O)NC(C)C)C(C)C (stereo not drawn) [benzyl 4-hydroxy-1-(1-(isopropylamino)-3-methyl-1-oxobutan-2-ylamino)-7-methyl-5-(3-(N-methylmethylsulfonamido)-5-(1-phenylethylcarbamoyl)benzamido)-1-oxooctan-2-ylcarbamate]
< 405 nM		CC(C)CNC(=O)C(NC(=O)C(C)CC(O)C(CC(C)C)NC(=O)c1cc(OCC2CNC(=O)O2)cc(C(=O)NC(C)c2ccccc2)c1)C(C)C (stereo not drawn) [N1-(5-hydroxy-8-(1-(isobutylamino)-3-methyl-1-oxobutan-2-ylamino)-2,7-dimethyl-8-oxooctan-4-yl)-5-((2-oxooxazolidin-5-yl)methoxy)-N3-(1-phenylethyl)isophthalamide]
< 405 nM		CCCN(CCC)C(=O)c1cncc(C(=O)NC(CC(C)C)C(O)CC(C)C(=O)NC(C(=O)NC(C)C)C(C)C)c1 (stereo not drawn) [N3-(5-hydroxy-8-(1-(isopropylamino)-3-methyl-1-oxobutan-2-ylamino)-2,7-dimethyl-8-oxooctan-4-yl)-N5,N5-dipropylpyridine-3,5-dicarboxamide]
2000 to 5000 nM		CCCN(CCC)C(=O)c1cccc(C(=O)NC(CC(C)C)C(O)CC(C)C(=O)NCC(C)C)c1 (stereo not drawn) [N1-(5-hydroxy-8-(isobutylamino)-2,7-dimethyl-8-oxooctan-4-yl)-N3,N3-dipropylisophthalamide]
< 405 nM		Cc1nc(CN(C)C(=O)c2cccc(C(=O)NC(CC(C)C)C(O)CC(C)C(=O)NC(C(=O)NCC(C)C)C(C)C)c2)cs1 (stereo not drawn) [N1-(5-hydroxy-8-(1-(isobutylamino)-3-methyl-1-oxobutan-2-ylamino)-2,7-dimethyl-8-oxooctan-4-yl)-N3-methyl-N3-((2-methylthiazol-4-yl)methyl)isophthalamide]

SMILES	Ki (memapsin 2)	IC50 (Aβ production)
CC(C)CC(NC(=O)c1cc(C(=O)NC(CO)c2ccccc2)cc(N(C)S(C)(=O)=O)c1)C(O)CC(C)C(=O)NC(C(=O)NC(C)C)C(C)C (stereo not drawn) [N1-(2-hydroxy-1-phenylethyl)-N3-(5-hydroxy-8-(1-(isopropylamino)-3-methyl-1-oxobutan-2-ylamino)-2,7-dimethyl-8-oxooctan-4-yl)-5-(N-methylmethylsulfonamido)isophthalamide]	405 to 2000 nM	> 20000 nM
CC(C)CC(NC(=O)c1cc(C(=O)NC(C)c2ccccc2)cc(N(C)S(C)(=O)=O)c1)C(O)CC(C)C(=O)NC(C(=O)NC(C)C)C(C)C (stereo not drawn) [N1-(5-hydroxy-8-(1-(isopropylamino)-3-methyl-1-oxobutan-2-ylamino)-2,7-dimethyl-8-oxooctan-4-yl)-5-(N-methylmethylsulfonamido)-N3-(1-phenylethyl)isophthalamide]		< 5000 nM
CC(C)CC(NC(=O)c1cc(C(=O)NCc2ccccc2)cc(N(C)S(C)(=O)=O)c1)C(O)CC(C)C(=O)NC(C(=O)NC(C)C)C(C)C (stereo not drawn) [N1-benzyl-N3-(5-hydroxy-8-(1-(isopropylamino)-3-methyl-1-oxobutan-2-ylamino)-2,7-dimethyl-8-oxooctan-4-yl)-5-(N-methylmethylsulfonamido)isophthalamide]		5000 to 10000 nM

Source: US20080207527A1, “Bicyclic Compounds Which Inhibit Beta-Secretase Activity and Methods of Use Thereof” (CoMentis, Inc., priority 2004, published 2008)
